Experimental data from patent US9737502B2, “Calebin A for hepatic steatosis” (SAMI LABS LIMITED, priority 2011, dated 2017).

Columns and labels:
[1] = tested on: TNF-α; experiment: Serum TNF-α in LPS-injected mice after 6 days oral treatment (ELISA); assay type: in vivo, Swiss albino mice; conditions: graded doses, then LPS 1 mg/kg i.v., serum 90 min after LPS
Protocol: (§1) The present inventors also adduce study data on the ability of Calebin A to reduce expression of Extracellular TNF-α, IL-1 beta [FIG. 6] and IL-6 [FIG. 7] in serum from treated mice (in-vivo models). Swiss albino male mice aged 6-8 weeks were maintained at 22±2° C. under 12/12 h light dark cycle. Mice received oral treatment of test drugs at graded doses (w/v) for 6 days, followed by intravenous injection of 1 mg/kg of LPS according to the method described by Brieva A, Guerrero A, Alonso-Lebrero J L and Pivel J P. 2001. Immunoferon, a glycoconjugate of natural origin, inhibits LPS-induced TNF-α production and inflammatory responses. International Immunopharmacology 1, 1979-1987. Six mice were employed in each group and experiments were performed in triplicates. TNF-α, IL-1 beta and IL-6 production was evaluated by a commercial ELISA kits (R&D Systems) in serum from treated mice, 90 min after LPS injection. Rolipram at 30 mg/kg was used as standard drug.

[2] = tested on: 3T3-L1 preadipocytes; experiment: Differentiation and adipogenesis of 3T3-L1 preadipocytes, Oil Red O (Example IV); assay type: cell-based, Mouse; conditions: 5, 10, 15, 20, 25 and 30 μM for 8 days
Protocol: Mouse 3T3-L1 pre-adipocytes purchased from the American Type Culture Collection (Rockville, Md.) were grown in Dulbecco's Modified Eagle's Medium (DMEM) supplemented with 2 mM glutamine (GIBCO BRL), 1% penicillin/streptomycin (10000 units of penicillin/mL and 10 mg streptomycin/mL) and 10% fetal calf serum (FCS) at 37° C. under a humidified 5% CO2 atmosphere. Briefly, cells were seeded into 24-well (2×10^4/mL) or 10 cm dish with DMEM containing 10% fetal bovine serum (FBS) to full confluence. […]
At the end of differentiation, cells were washed twice with phosphate-buffered saline (PBS), fixed with 10% formalin for 60 min, stained with 0.5% Oil Red O in isopropanol for 1 h at room temperature. […] To quantify lipid accumulation, the stained lipid droplets were dissolved in isopropanol and the absorbance was measured at 520 nm.
Differentiation of 3T3-L1 preadipocytes stained with Oil Red O and photographed (upper and middle). 3T3-L1 preadipocytes were incubated with MDI (DMEM with IBMX, DEX, and insulin) for 2 days and then replaced with DMEM containing insulin with or without Calebin A (0, 5, 10, 15, 20, 25 and 30 μM), respectively, for 8 days, Lipid content was extracted from Oil Red O stained cells by 2-propanol and quantified by spectrophotometric analysis at 520 nm.

[3] = tested on: IL-6; experiment: Serum IL-6 in LPS-injected mice after 6 days oral treatment (ELISA); assay type: in vivo, Swiss albino mice; conditions: graded doses, then LPS 1 mg/kg i.v., serum 90 min after LPS
Protocol: as §1

[4] = tested on: epididymal fat (adipocytes); experiment: Adipocyte size in epididymal fat of HFD mice (H&E histology); assay type: in vivo, C57BL/6J mice; conditions: Calebin A 0.25% and 1%, 12 weeks
Protocol: Fully differentiated adipocytes (8 days) previously untreated with Calebin A as described in procedural steps outlined in Example IV were treated with Calebin A at concentrations of 5-30 μM. Lipolysis was linked to the breakdown of lipids into glycerol that was released into the cell culture medium and detected thereof. […] Thus, in another most preferred embodiment, the present invention relates to a method of inducing lipolysis in mammalian adipocytes, said method comprising the step of treating mammalian adipocytes with varying concentrations of Calebin A to bring about the effect of dose dependant lipolysis in said adipocytes. […] Epididymal fat pads were dissected and fixed in 10% buffered formalin for at least 24 hours, then dehydrated with a sequence of ethanol solutions and processed for embedding in paraffin. Sections of 5-6 μm in thickness were cut, de-paraffinized, rehydrated, stained with haematoxylin & eosin (H&E) and subjected to photomicroscopic assessment. Adipocyte size was determined using a Nikon light microscope (Japan) equipped with an ocular micrometer at 200× magnification in 10 random fields per section. […]

[5] = Study I: HFD-fed mice, diet supplementation 12 weeks; body weight, food intake, relative organ weights; conditions: for wt gain / Final wt / relative organ weight: Kidney / relative organ weight: liver: 12 weeks; for wt gain: HFD 16.50 ± 2.90; for Final wt: HFD 38.63 ± 3.92; for relative organ weight: Kidney / relative organ weight: liver: percentage of body weight; for Initial wt: baseline
Protocol: Male C57BL/6J mice at 5 weeks of age were purchased from the BioLASCO Experimental Animal Center (Taiwan Co., Ltd., Taipei, Taiwan) and housed in a controlled atmosphere (25±1° C. at 50% relative humidity) and with a 12-h light/12-h dark cycle. […] Animals had free access to food and water at all times. Food cups were replenished with fresh diet daily. The diet intake of animals was monitored every day and the body weight was recorded weekly. […] At the end of the study, all animals were fasted overnight and sacrificed by CO2 asphyxiation. Blood samples were collected from the heart for biochemical analysis. Liver, spleen, kidney and fat pads (perigonadal, retroperitoneal and mesenteric fat) were immediately removed, weighed (TABLE VI) and photographed. […] Body weight was monitored weekly, and the average body weight of each group was expressed as the mean±SE. Statistical analysis was done by Student's t test. (*) P<0.01, compared with ND group; (#) P<0.01, compared with HFD group.

In the case of `COc1cc(/C=C/C(=O)COC(=O)/C=C/c2ccc(O)c(OC)c2)ccc1O` [Calebin A], the “expression of TNF-α in serum” value [1] is reported as “effective in reducing”, the “differentiation and adipogenesis of 3T3-L1 preadipocytes” value [2] is reported as “inhibits” and the “expression of IL-6 in serum” value [3] is reported as “effective in reducing”. For the same molecule, the size of adipocytes [4] was “remarkable reduction”, the wt gain ([5]; HFD + 0.25% Calebin A) was 13.02 ± 2.52 g and the Final wt ([5]; HFD + 0.25% Calebin A) was 35.28 ± 2.38 g. The “relative organ weight: Kidney” value ([5]; HFD + 0.25% Calebin A) was 1.22 ± 0.12%, the “relative organ weight: liver” value ([5]; HFD + 0.25% Calebin A) was 4.05 ± 0.28% and the Initial wt ([5]; HFD + 0.25% Calebin A) was 22.27 ± 0.49 g. The wt gain ([5]; HFD + 1% Calebin A) was 10.12 ± 2.48 g, the Final wt ([5]; HFD + 1% Calebin A) was 31.99 ± 2.50 g and the “relative organ weight: Kidney” value ([5]; HFD + 1% Calebin A) was 1.30 ± 0.15%. For the same molecule, the “relative organ weight: liver” value ([5]; HFD + 1% Calebin A) was 4.00 ± 0.25% and the Initial wt ([5]; HFD + 1% Calebin A) was 21.88 ± 0.91^ g.
